Results as given in patent US20260183297A1, “SELECTION OF PATIENTS FOR THE TREATMENT OF FADS1-MEDIATED DISEASES OR DISORDERS USING FADS-1 INHIBITORS” (AMGEN INC., priority 2022, published 2026).
Marks after values point to notes of the source that are not given here.

Test: Fatty acid concentration and composition of plasma lipid subfractions (GC) of Compound A-treated DIO mice
Type: in vivo, mouse
Protocol: FIG. 16(b) provides fatty acid composition of total plasma and each of the 4 plasma lipid subfractions of vehicle treated (WT) and 30 mg/kg Compound A-treated WT DIO mice (WT+A). (a-b) n=3 samples per group (each sample pooled from 2 mice). (a) Data are shown as minimum to maximum. t-test *P<0.05, **P<0.01, ***P<0.001.

[1] = DIO mouse plasma, Cholesterol ester, 30 mg/kg, GC, mean
[2] = DIO mouse plasma, Cholesterol ester, 30 mg/kg, GC, mean % composition
[3] = DIO mouse plasma, Free fatty acids, 30 mg/kg, GC, mean
[4] = DIO mouse plasma, Free fatty acids, 30 mg/kg, GC, mean % composition
[5] = DIO mouse plasma, Phospholipids, 30 mg/kg, GC, mean
[6] = DIO mouse plasma, Phospholipids, 30 mg/kg, GC, mean % composition

For `COc1ccn2c(=O)c(-c3cnn(CC(F)(F)C(F)(F)F)c3)c(C(F)(F)F)nc2c1` [Compound A, 8-methoxy-3-(1-(2,2,3,3,3-pentafluoropropyl)-1H-pyrazol-4-yl)-2-(trifluoromethyl)-4H-pyrido[1,2-a]pyrimidin-4-one], the “EPA/AA ratio in all four lipid subfractions” value (Compound A-treated DIO mice, plasma) was “increased”, the “C14:0 concentration, Cholesterol ester” value [1] was 29.9 µg/mL and the “C16:0 concentration, Cholesterol ester” value [1] was 90.5 µg/mL. The “C16:1n7 concentration, Cholesterol ester” value [1] was 27.7 µg/mL, the “C16:1n7t concentration, Cholesterol ester” value [1] was 2.6 µg/mL and the “C18:0 concentration, Cholesterol ester” value [1] was 50.3 µg/mL. For the same compound, the “C18:1n9 concentration, Cholesterol ester” value [1] was 113 µg/mL, the “C18:1t concentration, Cholesterol ester” value [1] was 8.1 µg/mL and the “C18:2n6 concentration, Cholesterol ester” value [1] was 516 µg/mL. The “C18:2n6t concentration, Cholesterol ester” value [1] was 10.4* μg mL^−1, the “C18:3n3 concentration, Cholesterol ester” value [1] was 3.0 µg/mL and the “C18:3n6 concentration, Cholesterol ester” value [1] was 20.4* μg mL^−1. For the same compound, the “C20:0 concentration, Cholesterol ester” value [1] was 1.2 µg/mL, the “C20:1n9 concentration, Cholesterol ester” value [1] was 0.6 µg/mL and the “C20:2n6 concentration, Cholesterol ester” value [1] was 1.4 µg/mL. The “C20:3n6 concentration, Cholesterol ester” value [1] was 124*** μg mL^−1, the “C20:5n3 concentration, Cholesterol ester” value [1] was 2.8* μg mL^−1 and the “C22:0 concentration, Cholesterol ester” value [1] was 1.3 µg/mL. For the same compound, the “C22:4n6 concentration, Cholesterol ester” value [1] was 1.5 µg/mL, the “C22:5n3 concentration, Cholesterol ester” value [1] was 31.0 µg/mL and the “C22:5n6 concentration, Cholesterol ester” value [1] was 1.7 µg/mL. The “C22:6n3 concentration, Cholesterol ester” value [1] was 37.4* μg mL^−1, the “C24:0 concentration, Cholesterol ester” value [1] was 1.2 µg/mL and the “C24:1n9 concentration, Cholesterol ester” value [1] was 2.6 µg/mL. The “Total fatty acids concentration, Cholesterol ester” value [1] was 1150* μg mL^−1, the “C14:0 composition, Cholesterol ester” value [2] was 2.61* % and the “C16:0 composition, Cholesterol ester” value [2] was 7.89*** %. For the same compound, the “C16:1n7 composition, Cholesterol ester” value [2] was 2.39* %, the “C16:1n7t composition, Cholesterol ester” value [2] was 0.23** % and the “C18:0 composition, Cholesterol ester” value [2] was 4.41* %. For the same compound, the “C18:1n9 composition, Cholesterol ester” value [2] was 9.73* %, the “C18:1t composition, Cholesterol ester” value [2] was 0.7*** % and the “C18:2n6 composition, Cholesterol ester” value [2] was 44.7*** %. For the same compound, the “C18:2n6t composition, Cholesterol ester” value [2] was 0.9*** %, the “C18:3n3 composition, Cholesterol ester” value [2] was 0.27% and the “C18:3n6 composition, Cholesterol ester” value [2] was 1.76*** %. For the same compound, the “C20:0 composition, Cholesterol ester” value [2] was 0.1%, the “C20:1n9 composition, Cholesterol ester” value [2] was 0.05% and the “C20:2n6 composition, Cholesterol ester” value [2] was 0.12%. The “C20:3n6 composition, Cholesterol ester” value [2] was 10.8*** %, the “C20:4n6 composition, Cholesterol ester” value [2] was 6.34*** % and the “C20:5n3 composition, Cholesterol ester” value [2] was 0.25%. For the same compound, the “C22:0 composition, Cholesterol ester” value [2] was 0.12%, the “C22:4n6 composition, Cholesterol ester” value [2] was 0.13% and the “C22:5n3 composition, Cholesterol ester” value [2] was 2.71* %. The “C22:5n6 composition, Cholesterol ester” value [2] was 0.14%, the “C22:6n3 composition, Cholesterol ester” value [2] was 3.26** % and the “C24:0 composition, Cholesterol ester” value [2] was 0.11%. For the same compound, the “C24:1n9 composition, Cholesterol ester” value [2] was 0.23%, the “C14:0 concentration, Free fatty acids” value [3] was 18.8 µg/mL and the “C16:0 concentration, Free fatty acids” value [3] was 132.7 µg/mL. For the same compound, the “C16:1n7 concentration, Free fatty acids” value [3] was 8.7 µg/mL, the “C16:1n7t concentration, Free fatty acids” value [3] was 0.5 µg/mL and the “C18:0 concentration, Free fatty acids” value [3] was 76.8 µg/mL. For the same compound, the “C18:1n9 concentration, Free fatty acids” value [3] was 98.1* μg mL^−1, the “C18:1t concentration, Free fatty acids” value [3] was 2.5 µg/mL and the “C18:2n6 concentration, Free fatty acids” value [3] was 38.5 µg/mL. The “C18:2n6t concentration, Free fatty acids” value [3] was 3.3 µg/mL, the “C18:3n3 concentration, Free fatty acids” value [3] was 1.6 µg/mL and the “C18:3n6 concentration, Free fatty acids” value [3] was 1.2 µg/mL. For the same compound, the “C20:0 concentration, Free fatty acids” value [3] was 1.8 µg/mL, the “C20:1n9 concentration, Free fatty acids” value [3] was 2.8 µg/mL and the “C20:2n6 concentration, Free fatty acids” value [3] was 1.1 µg/mL. The “C20:3n6 concentration, Free fatty acids” value [3] was 8.1** μg mL^−1, the “C20:4n6 concentration, Free fatty acids” value [3] was 2.9*** μg mL^−1 and the “C20:5n3 concentration, Free fatty acids” value [3] was 8.3 µg/mL. For the same compound, the “C22:0 concentration, Free fatty acids” value [3] was 1.4 µg/mL, the “C22:4n6 concentration, Free fatty acids” value [3] was 1.1* μg mL^−1 and the “C22:5n3 concentration, Free fatty acids” value [3] was 32.0 µg/mL. The “C22:5n6 concentration, Free fatty acids” value [3] was 0.4 µg/mL, the “C22:6n3 concentration, Free fatty acids” value [3] was 5.3 µg/mL and the “C24:0 concentration, Free fatty acids” value [3] was 1.0 µg/mL. For the same compound, the “C24:1n9 concentration, Free fatty acids” value [3] was 1.8 µg/mL, the “Total fatty acids concentration, Free fatty acids” value [3] was 451 µg/mL and the “C14:0 composition, Free fatty acids” value [4] was 4.15%. For the same compound, the “C16:0 composition, Free fatty acids” value [4] was 29.5%, the “C16:1n7 composition, Free fatty acids” value [4] was 1.91% and the “C16:1n7t composition, Free fatty acids” value [4] was 0.11%. For the same compound, the “C18:0 composition, Free fatty acids” value [4] was 17.1* %, the “C18:1n9 composition, Free fatty acids” value [4] was 21.8% and the “C18:1t composition, Free fatty acids” value [4] was 0.57%. The “C18:2n6 composition, Free fatty acids” value [4] was 8.61%, the “C18:2n6t composition, Free fatty acids” value [4] was 0.76% and the “C18:3n3 composition, Free fatty acids” value [4] was 0.34%. For the same compound, the “C18:3n6 composition, Free fatty acids” value [4] was 0.26* %, the “C20:0 composition, Free fatty acids” value [4] was 0.39% and the “C20:1n9 composition, Free fatty acids” value [4] was 0.61%. For the same compound, the “C20:2n6 composition, Free fatty acids” value [4] was 0.25%, the “C20:3n6 composition, Free fatty acids” value [4] was 1.82% and the “C20:4n6 composition, Free fatty acids” value [4] was 0.64*** %. For the same compound, the “C20:5n3 composition, Free fatty acids” value [4] was 1.75%, the “C22:0 composition, Free fatty acids” value [4] was 0.31% and the “C22:4n6 composition, Free fatty acids” value [4] was 0.25* %. The “C22:5n3 composition, Free fatty acids” value [4] was 7.14%, the “C22:5n6 composition, Free fatty acids” value [4] was 0.10% and the “C22:6n3 composition, Free fatty acids” value [4] was 1.15%. For the same compound, the “C24:0 composition, Free fatty acids” value [4] was 0.22%, the “C24:1n9 composition, Free fatty acids” value [4] was 0.39% and the “C14:0 concentration, Phospholipids” value [5] was 5.3 µg/mL. The “C16:0 concentration, Phospholipids” value [5] was 591 µg/mL, the “C16:1n7 concentration, Phospholipids” value [5] was 7.7 µg/mL and the “C18:0 concentration, Phospholipids” value [5] was 302*** μg mL^−1. The “C18:1n9 concentration, Phospholipids” value [5] was 260 µg/mL, the “C18:1t concentration, Phospholipids” value [5] was 3.9 µg/mL and the “C18:2n6 concentration, Phospholipids” value [5] was 400** μg mL^−1. For the same compound, the “C18:2n6t concentration, Phospholipids” value [5] was 4.5 µg/mL, the “C18:3n3 concentration, Phospholipids” value [5] was 1.0 µg/mL and the “C18:3n6 concentration, Phospholipids” value [5] was 4.3 µg/mL. For the same compound, the “C20:0 concentration, Phospholipids” value [5] was 1.4** μg mL^−1, the “C20:1n9 concentration, Phospholipids” value [5] was 5.8 µg/mL and the “C20:2n6 concentration, Phospholipids” value [5] was 9.0 µg/mL. The “C20:3n6 concentration, Phospholipids” value [5] was 382*** μg mL^−1, the “C20:4n6 concentration, Phospholipids” value [5] was 31.2*** μg mL^−1 and the “C20:5n3 concentration, Phospholipids” value [5] was 1.2* μg mL^−1. For the same compound, the “C22:0 concentration, Phospholipids” value [5] was 1.8 µg/mL, the “C22:4n6 concentration, Phospholipids” value [5] was 2.1*** μg mL^−1 and the “C22:5n3 concentration, Phospholipids” value [5] was 12.8 µg/mL. For the same compound, the “C22:5n6 concentration, Phospholipids” value [5] was 1.8*** μg mL^−1, the “C22:6n3 concentration, Phospholipids” value [5] was 70.2** μg mL^−1 and the “C24:0 concentration, Phospholipids” value [5] was 1.0 µg/mL. The “C24:1n9 concentration, Phospholipids” value [5] was 3.3 µg/mL, the “Total fatty acids concentration, Phospholipids” value [5] was 2105* μg mL^−1 and the “C14:0 composition, Phospholipids” value [6] was 0.25* %. For the same compound, the “C16:0 composition, Phospholipids” value [6] was 28.1** % and the “C16:1n7 composition, Phospholipids” value [6] was 0.36** %.
